Experimental data: ChEMBL document CHEMBL1201862, “PubChem BioAssay data set” (2004)
Activity calls are given as the source filed them. Unless noted, the calls are words filed in the database; no cut-off is given here.

Legend:
[1] = biological target: T1, E3 ubiquitin-protein ligase XIAP (Homo sapiens, UniProt P98170); assay: SAR analysis of Antagonists of XIAP-Bir3 domain of IAP-family anti-apoptotic proteins. [Related pubchem assays (depositor defined):AID1018, AID1449, AID1513, AID1514, AID1638]
T1 sequence (P98170 whole entry, the tested form may be a part): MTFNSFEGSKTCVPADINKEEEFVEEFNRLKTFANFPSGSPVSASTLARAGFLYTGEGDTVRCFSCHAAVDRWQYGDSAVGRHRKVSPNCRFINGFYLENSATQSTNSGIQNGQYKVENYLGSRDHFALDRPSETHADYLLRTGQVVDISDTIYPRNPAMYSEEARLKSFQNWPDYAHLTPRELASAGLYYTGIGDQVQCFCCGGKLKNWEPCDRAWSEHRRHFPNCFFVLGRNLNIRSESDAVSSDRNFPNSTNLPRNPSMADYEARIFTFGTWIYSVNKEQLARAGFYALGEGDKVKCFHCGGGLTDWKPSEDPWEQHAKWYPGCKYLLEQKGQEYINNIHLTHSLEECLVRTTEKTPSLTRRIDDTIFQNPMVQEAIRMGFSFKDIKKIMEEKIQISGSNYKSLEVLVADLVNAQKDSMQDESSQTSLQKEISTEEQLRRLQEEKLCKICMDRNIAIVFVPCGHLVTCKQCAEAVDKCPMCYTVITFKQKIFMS

[2] = biological target: T1, E3 ubiquitin-protein ligase XIAP; assay: SAR analysis of Antagonists of IAP-family anti-apoptotic proteins. [Related pubchem assays (depositor defined):AID1018, AID1449, AID1513, AID1514, AID1638]
[3] = biological target: Intestinal-type alkaline phosphatase (Homo sapiens, UniProt P09923); assay: activation of human intestinal alkaline phosphatase – biochemical, dose response (AID 488873); type: functional
Intestinal-type alkaline phosphatase (Homo sapiens, UniProt P09923), sequence (P09923 whole entry): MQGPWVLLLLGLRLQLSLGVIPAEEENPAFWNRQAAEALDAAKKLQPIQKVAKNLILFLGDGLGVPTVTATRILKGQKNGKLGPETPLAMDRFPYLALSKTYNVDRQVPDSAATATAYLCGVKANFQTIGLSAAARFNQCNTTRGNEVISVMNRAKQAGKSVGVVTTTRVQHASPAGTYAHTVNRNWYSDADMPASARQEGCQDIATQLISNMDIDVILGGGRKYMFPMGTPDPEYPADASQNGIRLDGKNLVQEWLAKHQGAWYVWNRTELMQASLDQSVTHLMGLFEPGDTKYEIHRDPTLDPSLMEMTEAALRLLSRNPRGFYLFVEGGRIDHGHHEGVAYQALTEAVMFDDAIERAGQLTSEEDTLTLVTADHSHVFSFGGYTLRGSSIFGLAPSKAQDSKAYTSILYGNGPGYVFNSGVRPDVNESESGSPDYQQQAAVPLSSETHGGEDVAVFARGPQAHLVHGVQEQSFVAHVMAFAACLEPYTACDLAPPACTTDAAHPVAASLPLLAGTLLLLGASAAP

[4] = biological target: Intestinal-type alkaline phosphatase (Mus musculus, UniProt P24822); assay: mouse intestinal alkaline phosphatase activators, dose response, biochemical, luminescence, uHTS hits (AID 488783); type: functional
Intestinal-type alkaline phosphatase (Mus musculus, UniProt P24822), sequence (P24822 whole entry): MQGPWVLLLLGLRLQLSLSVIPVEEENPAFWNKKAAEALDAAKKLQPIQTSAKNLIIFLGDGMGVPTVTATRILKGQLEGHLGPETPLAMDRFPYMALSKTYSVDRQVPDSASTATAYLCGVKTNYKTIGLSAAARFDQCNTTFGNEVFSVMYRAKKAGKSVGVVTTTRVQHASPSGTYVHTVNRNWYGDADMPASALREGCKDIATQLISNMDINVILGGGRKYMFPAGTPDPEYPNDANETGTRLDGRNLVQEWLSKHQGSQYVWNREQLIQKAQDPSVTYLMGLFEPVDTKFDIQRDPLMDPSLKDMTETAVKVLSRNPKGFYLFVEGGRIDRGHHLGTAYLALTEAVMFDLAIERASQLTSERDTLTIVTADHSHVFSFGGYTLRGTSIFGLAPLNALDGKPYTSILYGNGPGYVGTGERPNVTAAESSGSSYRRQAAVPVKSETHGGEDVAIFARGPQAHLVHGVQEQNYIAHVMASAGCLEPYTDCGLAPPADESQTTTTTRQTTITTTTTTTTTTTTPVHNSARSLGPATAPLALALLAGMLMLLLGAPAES

[5] = biological target: T2, Alkaline phosphatase, tissue-nonspecific isozyme (Homo sapiens, UniProt P05186); assay: activation of tissue-nonspecific alkaline phosphatase – biochemical, TNAP isozyme, mouse IAP uHTS hits, selectivity assay for mouse IAP activator project, dose response (AID 488880); type: functional
T2 sequence (P05186 whole entry): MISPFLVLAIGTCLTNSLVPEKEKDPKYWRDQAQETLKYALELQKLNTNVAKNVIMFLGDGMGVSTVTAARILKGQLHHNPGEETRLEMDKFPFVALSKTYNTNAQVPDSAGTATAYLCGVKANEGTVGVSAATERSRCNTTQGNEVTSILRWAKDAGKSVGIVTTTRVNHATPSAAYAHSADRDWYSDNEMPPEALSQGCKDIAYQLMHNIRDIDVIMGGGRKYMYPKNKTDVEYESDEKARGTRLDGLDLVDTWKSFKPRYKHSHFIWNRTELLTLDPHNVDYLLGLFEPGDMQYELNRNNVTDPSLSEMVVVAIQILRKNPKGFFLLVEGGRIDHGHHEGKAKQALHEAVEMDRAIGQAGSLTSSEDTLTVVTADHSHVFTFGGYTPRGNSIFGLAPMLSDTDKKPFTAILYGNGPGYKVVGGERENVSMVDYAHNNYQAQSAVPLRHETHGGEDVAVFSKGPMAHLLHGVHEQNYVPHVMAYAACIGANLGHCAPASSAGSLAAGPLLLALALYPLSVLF

Row | IC50 [1] | IC50 [2] | EC50 [3] | EC50 [4] | EC50 [5] | SMILES
1 | > 100 µM (inactive) | > 100 µM (inactive) | – | – | – | CN[C@@H](C)C(=O)NC1CCCN([C@@H](C)C(=O)NC2CCc3ccccc3C2)C1=O (stereo not given in full)
2 | – | – | 60.3 µM (active) | 62.7 µM (active) | 58.7 µM (active) | Cc1ccc(NS(=O)(=O)c2ccc3nc(O)oc3c2)c(C)c1
